How the values were obtained:
Type in all cases: biochemical
Details in all cases: single triphosphate offered to enzyme/primer/template complex, template dG; 37° C. for 45 min; denaturing PAGE
[1] = biological target: HIV reverse transcriptase (Human immunodeficiency virus type 1 group M subtype B, UniProt P04585); assay: Primer extension / chain termination with HIV reverse transcriptase
From the text: (§1) The nucleoside incorporation experiment for one of the modified nucleotide analog compounds of the present invention is illustrated in FIGS. 12 and 13. […] The first nucleoside added to the primer should be a C residue (coded by the G residue of the template). A single triphosphate of dC or the above analog is offered to the enzyme/primer/template complex. […] In the remaining lanes of the gel, experiments have been designed with only the analog dd2ApyTP present with the primer template complex.
(§2) The following buffers were used for each polymerase: DNA polmerase α, 50 mM Tris.HCl pH 8.0, 5 mM Mg(AcO)2, 1 mM DTT, 1 mM spermidine; DNA pol β 50 mM Tris.HCl pH 8.0, 10 mM MgCl2, 1 mM DTT; DNA Polymerase γ 50 mM Tris.HCl pH 7.5, 100 mM NaCl, 2.5 MM MgCl2; HIV RT 50 mM Tris.HCl pH 8.5, 10 mM MgCl2, 40 mM KCl, 1 mM DTT. Template, primer and the corresponding buffer were mixed and heated to 100° C. for 1 min, allowed to cool to room temperature then placed on ice for 30 min. Once the template and primer had been allowed to anneal the polymerase was added. The appropriate amount of template-primer mixture was added to a vial containing water and the NTP(s) at the desired concentration. Typical reaction volumes were 10 μL. The reactions were incubated at 37° C. for 45 min. […] Primer extensions were analyzed by standard methods by denaturing Polyacrylamide Gel Electrophoresis (PAGE). […]

[2] = biological target: T1, human polymerase γ (Homo sapiens, UniProt P54098); assay: Primer extension / chain termination with human polymerase γ
T1 sequence (P54098 1-1239): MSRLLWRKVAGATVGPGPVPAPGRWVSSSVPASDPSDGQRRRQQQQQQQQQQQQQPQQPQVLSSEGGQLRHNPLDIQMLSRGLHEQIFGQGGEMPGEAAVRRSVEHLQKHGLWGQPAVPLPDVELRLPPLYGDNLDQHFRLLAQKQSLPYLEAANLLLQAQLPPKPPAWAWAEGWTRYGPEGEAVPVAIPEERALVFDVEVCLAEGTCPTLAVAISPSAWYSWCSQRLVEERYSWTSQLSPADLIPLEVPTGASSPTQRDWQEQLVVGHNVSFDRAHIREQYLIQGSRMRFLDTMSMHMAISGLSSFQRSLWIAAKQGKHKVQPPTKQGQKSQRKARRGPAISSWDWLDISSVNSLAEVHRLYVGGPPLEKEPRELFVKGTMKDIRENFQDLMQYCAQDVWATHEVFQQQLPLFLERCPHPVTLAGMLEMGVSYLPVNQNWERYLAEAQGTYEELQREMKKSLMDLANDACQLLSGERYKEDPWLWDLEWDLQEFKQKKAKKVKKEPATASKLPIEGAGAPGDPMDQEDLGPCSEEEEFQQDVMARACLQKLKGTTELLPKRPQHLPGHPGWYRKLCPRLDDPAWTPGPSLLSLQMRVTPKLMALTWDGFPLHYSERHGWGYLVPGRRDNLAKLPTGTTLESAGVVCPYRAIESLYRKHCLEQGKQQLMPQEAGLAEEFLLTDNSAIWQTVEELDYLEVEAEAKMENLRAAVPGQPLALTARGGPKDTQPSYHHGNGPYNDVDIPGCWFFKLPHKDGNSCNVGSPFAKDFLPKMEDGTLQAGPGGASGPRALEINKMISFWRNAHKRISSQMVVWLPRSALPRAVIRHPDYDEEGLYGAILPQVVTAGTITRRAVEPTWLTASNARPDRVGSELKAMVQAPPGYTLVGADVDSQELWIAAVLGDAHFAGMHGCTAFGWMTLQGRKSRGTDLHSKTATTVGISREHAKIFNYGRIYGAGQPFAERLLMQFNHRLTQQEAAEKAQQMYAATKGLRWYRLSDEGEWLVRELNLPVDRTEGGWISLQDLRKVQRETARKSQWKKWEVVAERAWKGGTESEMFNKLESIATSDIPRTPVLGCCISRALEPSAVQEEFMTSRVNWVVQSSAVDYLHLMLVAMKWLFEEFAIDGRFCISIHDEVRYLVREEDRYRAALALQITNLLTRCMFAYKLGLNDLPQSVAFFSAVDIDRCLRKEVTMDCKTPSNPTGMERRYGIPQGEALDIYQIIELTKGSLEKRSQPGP
Protocol: (§3) FIG. 13 illustrates the results for polymerases α and γ.
(§4) The following buffers were used for each polymerase: DNA polmerase α, 50 mM Tris.HCl pH 8.0, 5 mM Mg(AcO)2, 1 mM DTT, 1 mM spermidine; DNA pol β 50 mM Tris.HCl pH 8.0, 10 mM MgCl2, 1 mM DTT; DNA Polymerase γ 50 mM Tris.HCl pH 7.5, 100 mM NaCl, 2.5 MM MgCl2; HIV RT 50 mM Tris.HCl pH 8.5, 10 mM MgCl2, 40 mM KCl, 1 mM DTT. Template, primer and the corresponding buffer were mixed and heated to 100° C. for 1 min, allowed to cool to room temperature then placed on ice for 30 min. Once the template and primer had been allowed to anneal the polymerase was added. The appropriate amount of template-primer mixture was added to a vial containing water and the NTP(s) at the desired concentration. Typical reaction volumes were 10 μL. The reactions were incubated at 37° C. for 45 min. The reactions were quenched using Na-EDTA, heated at 100° C. for 1 min, and then flash frozen in liquid N2. Primer extensions were analyzed by standard methods by denaturing Polyacrylamide Gel Electrophoresis (PAGE).
(§5) Analytical polyacrylamide gel electrophoresis was performed using a 38×50 cm Sequi-Gen GT sequencing cell with a thickness of 0.4 mm and 15% monomer (acrylamide:bisacrylamide 19:1). Gels were run using 90 mM Tris-Borate 1 mM EDTA buffer (pH 8.3). Gels were imaged on Phosphorimager: 425 from Molecular Dynamics (Sunnyvale, Calif.).

[3] = biological target: human polymerase β (Homo sapiens, UniProt P06746); assay: Primer extension / chain termination with human polymerase β
From the text: as §1, §2

[4] = biological target: T2, human polymerase α (Homo sapiens, UniProt P09884); assay: Primer extension / chain termination with human polymerase α
T2 sequence (P09884 1-1462): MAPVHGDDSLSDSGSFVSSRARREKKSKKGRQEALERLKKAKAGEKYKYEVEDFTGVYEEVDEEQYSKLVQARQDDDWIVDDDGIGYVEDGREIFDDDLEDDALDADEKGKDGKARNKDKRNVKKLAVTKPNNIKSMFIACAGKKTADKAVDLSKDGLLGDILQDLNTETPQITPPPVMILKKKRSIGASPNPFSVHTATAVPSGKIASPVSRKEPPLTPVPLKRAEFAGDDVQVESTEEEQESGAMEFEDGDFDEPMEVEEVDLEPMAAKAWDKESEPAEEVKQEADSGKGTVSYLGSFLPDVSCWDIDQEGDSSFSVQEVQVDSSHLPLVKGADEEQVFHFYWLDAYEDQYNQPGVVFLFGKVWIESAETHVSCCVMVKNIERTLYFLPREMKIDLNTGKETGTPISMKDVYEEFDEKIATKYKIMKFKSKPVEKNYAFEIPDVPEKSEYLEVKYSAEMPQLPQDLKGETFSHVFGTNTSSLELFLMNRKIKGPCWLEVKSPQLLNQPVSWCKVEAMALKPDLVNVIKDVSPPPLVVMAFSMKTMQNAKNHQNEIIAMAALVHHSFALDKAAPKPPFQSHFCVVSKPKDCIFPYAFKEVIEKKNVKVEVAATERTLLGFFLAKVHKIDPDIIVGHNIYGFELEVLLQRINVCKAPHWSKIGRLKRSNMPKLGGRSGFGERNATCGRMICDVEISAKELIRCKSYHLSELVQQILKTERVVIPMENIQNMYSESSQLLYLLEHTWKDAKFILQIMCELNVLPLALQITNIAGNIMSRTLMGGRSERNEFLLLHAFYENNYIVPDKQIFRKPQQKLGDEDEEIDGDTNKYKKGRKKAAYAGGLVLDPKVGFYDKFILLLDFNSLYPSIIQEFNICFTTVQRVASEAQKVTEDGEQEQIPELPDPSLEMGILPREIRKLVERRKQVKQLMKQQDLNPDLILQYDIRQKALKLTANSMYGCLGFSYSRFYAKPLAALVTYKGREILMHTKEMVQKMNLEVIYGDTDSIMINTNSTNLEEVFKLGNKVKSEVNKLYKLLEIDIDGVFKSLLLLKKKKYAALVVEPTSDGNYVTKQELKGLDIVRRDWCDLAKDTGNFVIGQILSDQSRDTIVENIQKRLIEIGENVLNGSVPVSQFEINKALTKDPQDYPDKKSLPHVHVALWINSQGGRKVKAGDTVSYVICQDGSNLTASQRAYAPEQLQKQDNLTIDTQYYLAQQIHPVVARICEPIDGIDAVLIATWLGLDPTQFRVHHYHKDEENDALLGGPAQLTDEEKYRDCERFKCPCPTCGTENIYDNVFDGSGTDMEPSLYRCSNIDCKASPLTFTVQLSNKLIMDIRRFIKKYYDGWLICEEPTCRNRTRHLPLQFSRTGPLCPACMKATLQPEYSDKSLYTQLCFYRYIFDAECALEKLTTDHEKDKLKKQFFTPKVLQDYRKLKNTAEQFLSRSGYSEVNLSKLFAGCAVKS
Protocol: as §3, §4, §5

Nc1ccn([C@H]2C[C@H](O)[C@@H](COP(=O)(O)OP(=O)(O)OP(=O)(O)O)O2)c(=O)n1 [dCTP]
incorporation of the triphosphate into the primer (primer extension, gel, FIG. 12 left) [1]: two additions of the nucleoside | incorporation of the triphosphate into the primer (primer extension, gel, FIG. 13 right) [2]: normal incorporation into the primer | incorporation of the triphosphate into the primer (primer extension, gel, FIG. 12 right) [3]: incorporated by human polymerase β in the normal fashion | incorporation of the triphosphate into the primer (primer extension, gel, FIG. 13 left) [4]: normal incorporation into the primer

Reference: patent publication US6914052B2, “Selective anti-viral nucleoside chain terminators” (The Trustees of Boston College, priority 2001, dated 2005)
